Data from patent US9701709B2 (REATA PHARMACEUTICALS, INC., priority 2012, dated 2017).

How the values were obtained:
[1] = test system: LPS-induced pulmonary inflammation; experiment: LPS-induced pulmonary inflammation in mice
[2] = test system: aqueous humor protein after paracentesis; experiment: Ocular inflammation (paracentesis) in rabbits; format: in vivo, rabbit; conditions: 0.01% RTA 408 in the formulation, instillation
Description: Each rabbit was given three instillations within 60 min before induction of paracentesis and two instillations within 30 min after induction of paracentesis. Each instillation was 50 μL and given in both eyes. Aqueous humor for 6 animals per time-point was collected 30 min and again 2 h after induction of paracentesis. The amount of inflammation was determined by protein concentration in the aqueous humor.

[3] = Plasma protein binding (ultracentrifugation), mouse
[4] = test system: H6PD, PGD, TKT, ME1 mRNA in HCT-116 cells; experiment: mRNA of NADPH synthesis genes in HCT-116; format: cell-based; conditions: HCT-116, 10 or 50 nM, 24 h
Description: HCT-116 cells were plated in 6-well dishes at a density of 3×10^5 cells/well. […] Each well received the same amount of vehicle. Following treatment, media was removed and cells were harvested using RLT buffer (Qiagen). Lysates were homogenized using QIAShredder columns (Qiagen, Catalog #79654) and RNA was isolated using RNeasy Mini kits (Qiagen, Catalog #74104). For reverse transcription, RNA (1 μg) was combined with Oligo(dT)12-18 primer and H2O in a final volume of 23.25 μL. The mixture was heated to 70° C. for 10 min and then placed on ice. A master mix containing 8 μL 5×1st strand buffer, 2 μL 1 mg/ml BSA, 2 μL 20 mM DTT, 4 μL 5 mM dNTP mix, 0.25 μL RNaseOUTTM and 0.5 μL […]® II reverse transcriptase was added to the RNA mixture and incubated at 42° C. for 1 h. The reaction was inactivated by heating to 70° C. for 10 min. The reaction mixture was diluted 1:3 with H2O prior to use in qPCR. 2.5 μL of the diluted reverse transcription reaction was combined with one set of PCR primers (0.36 μM final concentration), 2× iQTM SYBR® Green Supermix (Bio-Rad, Catalog #170-8885) and H2O to a final volume of 20 pt. Sequences for PCR primers are as follows: Ribosomal protein S9 (RPS9) forward primer [NT] ID NO: 7), reverse primer [NT] ID NO: 8); […] […] The relative abundance of each target gene was determined using the comparative CT method (ΔΔCT). […]

[5] = molecular target: CYP2B6 (Homo sapiens, UniProt P20813); experiment: CYP450 inhibition in pooled human liver microsomes, CYP2B6; format: in vitro ADME; conditions: highest concentration tested (3 μM)
Description: In addition, there was little or no evidence of metabolism-dependent inhibition of any of the enzymes tested.

[6] = Oral pharmacokinetics, statements pooled over mice, rats, and monkeys; format: in vivo; conditions: mouse, rat, monkey, plasma; after oral administration; read-out: Apparent terminal half-life
Description: (§1) Measurements were performed on TQD and QToF mass spectrometers (Waters).
(§2) Following oral administration of a suspension formulation at doses of 10 to 100 mg/kg, maximal concentrations were observed within 1 to 2 h in mice, and within 1 to 24 h in rats and monkeys.

[7] = test system: STAT3 phosphorylation in HeLa cells; experiment: IL-6-induced STAT3 phosphorylation in HeLa; format: cell-based, human; conditions: 1 μM, 6 h pretreatment
[8] = test system: acute radiation dermatitis; experiment: Acute radiation dermatitis in BALB/c mice; format: in vivo, mouse
[9] = Oral pharmacokinetics in mice; format: in vivo, mouse; conditions: oral suspension, 10 to 100 mg/kg
Description: as §1, §2

[10] = Ocular absorption and distribution in rabbits; format: in vivo, rabbit
Description: Using rabbits, the ocular absorption and systemic pharmacokinetic behavior of RTA 408 was evaluated. RTA 408 was administered topically to the eye once per day for five days.

Chain of CYP2B6 (P20813 whole entry): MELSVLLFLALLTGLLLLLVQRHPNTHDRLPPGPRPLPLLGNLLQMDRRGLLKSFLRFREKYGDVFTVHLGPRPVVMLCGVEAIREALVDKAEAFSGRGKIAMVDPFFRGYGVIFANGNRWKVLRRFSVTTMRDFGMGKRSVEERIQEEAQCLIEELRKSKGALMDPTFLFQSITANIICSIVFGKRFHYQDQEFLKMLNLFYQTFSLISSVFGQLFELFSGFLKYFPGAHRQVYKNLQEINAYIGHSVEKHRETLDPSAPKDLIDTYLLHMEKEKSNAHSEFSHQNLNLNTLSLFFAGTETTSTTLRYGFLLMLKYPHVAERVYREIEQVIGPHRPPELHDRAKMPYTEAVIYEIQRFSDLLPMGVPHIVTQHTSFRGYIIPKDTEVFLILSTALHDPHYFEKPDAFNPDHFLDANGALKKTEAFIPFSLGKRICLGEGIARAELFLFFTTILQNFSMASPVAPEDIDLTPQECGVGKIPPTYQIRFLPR

CC1(C)CC[C@]2(NC(=O)C(C)(F)F)CC[C@]3(C)[C@H](C(=O)C=C4[C@@]5(C)C=C(C#N)C(=O)C(C)(C)[C@@H]5CC[C@]43C)[C@@H]2C1 [RTA 408, N-((4aS,6aR,6bS,8aR,12aS,14aR,14bS)-11-cyano-2,2,6a,6b,9,9,12a-heptamethyl-10,14-dioxo-1,2,3,4,4a,5,6,6a,6b,7,8,8a,9,10,12a,14,14a,14b-octadecahydropicen-4a-yl)-2,2-difluoropropanamide]
BALF cytokines, second study ([1]; 10 mg/kg daily for six days): Significant reductions in TNF-α | BALF cytokines, second study ([1]; 30 mg/kg daily for six days): significant reductions in IL-12p40, TNF-α, and RANTES | Body weight, second study ([1]; 100 mg/kg daily, starting on Day 3): significant decreases in body weight | Lung NQO1 enzyme activity (with increases in total GSH), second study ([1]; 10 and 30 mg/kg): significant induction of NQO1 enzyme activity | BALF pro-inflammatory markers, first study ([1]; 30, 100, or 150 mg/kg orally once daily for three days): significant reduction in IL-12p40 at all doses and in TNF-α at the 100 and 150 mg/kg doses | Peak reductions in TNF-α, IL-6, and IL-12 in BALF ([1]; QD×3, LPS 1 h after last dose, BALB/c mice): 50%-80% | Aqueous humor protein [2]: reduction in aqueous humor protein similar to that of the highest concentration of any of the other reference compounds | fraction unbound [3]: 0.07 | Expression of genes involved in NADPH synthesis [4]: dose-dependent increase in expression of genes involved in NADPH synthesis | inhibition at 3 µM [5]: < 50% | half-life [6]: 6 to 26 h | IL-6-induced phosphorylation of STAT3 [7]: inhibited phosphorylation of STAT3 induced by IL-6 | % animal-days >=2 ([8]; oral 3 mg/kg): 32.5% | % animal-days >=3 ([8]; oral 3 mg/kg): 1.3% | % mice scored above 3 in clinical dermatitis exam, Day 16 ([8]; oral 3 mg/kg): 10% | % mice scored above 3 in clinical dermatitis exam, Day 18 ([8]; oral 3 mg/kg): 10% | % mice scored above 3 in clinical dermatitis exam, Day 20 ([8]; oral 3 mg/kg): 0% | % mice scored above 3 in clinical dermatitis exam, Day 22 ([8]; oral 3 mg/kg): 0% | % mice scored above 3 in clinical dermatitis exam, Day 24 ([8]; oral 3 mg/kg): 0% | % mice scored above 3 in clinical dermatitis exam, Day 26 ([8]; oral 3 mg/kg): 0% | % mice scored above 3 in clinical dermatitis exam, Day 28 ([8]; oral 3 mg/kg): 0% | % animal-days >=2 ([8]; oral 10 mg/kg): 33.8% | % animal-days >=3 ([8]; oral 10 mg/kg): 4.1% | % mice scored above 3 in clinical dermatitis exam, Day 16 ([8]; oral 10 mg/kg): 10% | % mice scored above 3 in clinical dermatitis exam, Day 18 ([8]; oral 10 mg/kg): 25% | % mice scored above 3 in clinical dermatitis exam, Day 20 ([8]; oral 10 mg/kg): 30% | % mice scored above 3 in clinical dermatitis exam, Day 22 ([8]; oral 10 mg/kg): 0% | % mice scored above 3 in clinical dermatitis exam, Day 24 ([8]; oral 10 mg/kg): 0% | % mice scored above 3 in clinical dermatitis exam, Day 26 ([8]; oral 10 mg/kg): 0% | % mice scored above 3 in clinical dermatitis exam, Day 28 ([8]; oral 10 mg/kg): 0% | % animal-days >=2 ([8]; oral 30 mg/kg): 28.8% | % animal-days >=3 ([8]; oral 30 mg/kg): 2.5% | % mice scored above 3 in clinical dermatitis exam, Day 16 ([8]; oral 30 mg/kg): 10% | % mice scored above 3 in clinical dermatitis exam, Day 18 ([8]; oral 30 mg/kg): 20% | % mice scored above 3 in clinical dermatitis exam, Day 20 ([8]; oral 30 mg/kg): 10% | % mice scored above 3 in clinical dermatitis exam, Day 22 ([8]; oral 30 mg/kg): 0% | % mice scored above 3 in clinical dermatitis exam, Day 24 ([8]; oral 30 mg/kg): 0% | % mice scored above 3 in clinical dermatitis exam, Day 26 ([8]; oral 30 mg/kg): 0% | % mice scored above 3 in clinical dermatitis exam, Day 28 ([8]; oral 30 mg/kg): 0% | % animal-days >=2 ([8]; topical 0.01% in sesame oil): 14.4% | % animal-days >=3 ([8]; topical 0.01% in sesame oil): 0.0% | % mice scored above 2 in clinical dermatitis exam, Day 12 ([8]; topical 0.01% in sesame oil): 0.0% | % mice scored above 2 in clinical dermatitis exam, Day 14 ([8]; topical 0.01% in sesame oil): 0.0% | % mice scored above 2 in clinical dermatitis exam, Day 16 ([8]; topical 0.01% in sesame oil): 20.0% | % mice scored above 2 in clinical dermatitis exam, Day 18 ([8]; topical 0.01% in sesame oil): 50.0% | % mice scored above 2 in clinical dermatitis exam, Day 20 ([8]; topical 0.01% in sesame oil): 10.0% | % mice scored above 2 in clinical dermatitis exam, Day 22 ([8]; topical 0.01% in sesame oil): 40.0% | % mice scored above 2 in clinical dermatitis exam, Day 24 ([8]; topical 0.01% in sesame oil): 40.0% | % mice scored above 2 in clinical dermatitis exam, Day 26 ([8]; topical 0.01% in sesame oil): 40.0% | % mice scored above 2 in clinical dermatitis exam, Day 28 ([8]; topical 0.01% in sesame oil): 20.0% | % mice scored above 2 in clinical dermatitis exam, Day 30 ([8]; topical 0.01% in sesame oil): 10.0% | % animal-days >=2 ([8]; topical 0.1% in sesame oil): 16.3% | % animal-days >=3 ([8]; topical 0.1% in sesame oil): 0.0% | % mice scored above 2 in clinical dermatitis exam, Day 12 ([8]; topical 0.1% in sesame oil): 7.1% | % mice scored above 2 in clinical dermatitis exam, Day 14 ([8]; topical 0.1% in sesame oil): 10.0% | % mice scored above 2 in clinical dermatitis exam, Day 16 ([8]; topical 0.1% in sesame oil): 20.0% | % mice scored above 2 in clinical dermatitis exam, Day 18 ([8]; topical 0.1% in sesame oil): 80.0% | % mice scored above 2 in clinical dermatitis exam, Day 20 ([8]; topical 0.1% in sesame oil): 60.0% | % mice scored above 2 in clinical dermatitis exam, Day 22 ([8]; topical 0.1% in sesame oil): 40.0% | % mice scored above 2 in clinical dermatitis exam, Day 24 ([8]; topical 0.1% in sesame oil): 30.0% | % mice scored above 2 in clinical dermatitis exam, Day 26 ([8]; topical 0.1% in sesame oil): 10.0% | % mice scored above 2 in clinical dermatitis exam, Day 28 ([8]; topical 0.1% in sesame oil): 0.0% | % mice scored above 2 in clinical dermatitis exam, Day 30 ([8]; topical 0.1% in sesame oil): 0.0% | % animal-days >=2 ([8]; topical 1.0% in sesame oil): 9.7% | % animal-days >=3 ([8]; topical 1.0% in sesame oil): 0.0% | % mice scored above 2 in clinical dermatitis exam, Day 12 ([8]; topical 1.0% in sesame oil): 10.7% | % mice scored above 2 in clinical dermatitis exam, Day 14 ([8]; topical 1.0% in sesame oil): 20.0% | % mice scored above 2 in clinical dermatitis exam, Day 16 ([8]; topical 1.0% in sesame oil): 10.0% | % mice scored above 2 in clinical dermatitis exam, Day 18 ([8]; topical 1.0% in sesame oil): 70.0% | % mice scored above 2 in clinical dermatitis exam, Day 20 ([8]; topical 1.0% in sesame oil): 30.0% | % mice scored above 2 in clinical dermatitis exam, Day 22 ([8]; topical 1.0% in sesame oil): 10.0% | % mice scored above 2 in clinical dermatitis exam, Day 24 ([8]; topical 1.0% in sesame oil): 0.0% | % mice scored above 2 in clinical dermatitis exam, Day 26 ([8]; topical 1.0% in sesame oil): 0.0% | % mice scored above 2 in clinical dermatitis exam, Day 28 ([8]; topical 1.0% in sesame oil): 0.0% | % mice scored above 2 in clinical dermatitis exam, Day 30 ([8]; topical 1.0% in sesame oil): 0.0% | Time of maximal concentrations [9]: 1 to 2 h | Ocular tissue distribution ([10]; ocular topical administration): highest concentrations of the compound were found in the cornea, retina, or iris | Plasma concentration after ocular administration ([10]; topical to the eye once per day for five days): lower plasma concentration of RTA 408 relative to when RTA 408 is administered orally
